Measured values as given in patent publication US10688197B2, “Non-alcoholic fatty liver regulator 14-3-3 protein” (Korea University Research and Business Foundation, priority 2015, dated 2020).

Legend:
[1] = system: HepG2 cells; assay: mRNA expression by PCR in HepG2 cells; type: cell-based, human; conditions: for mRNA expression of SREBP-1c and FAT/CD36: HepG2, overexpression, 200 μM oleic acid 72 hours, FIG. 7A
Procedure: For mRNA extraction, the corresponding cells were lysed with 1 ml/well of TRIzol (Invitrogen), 200 μl of chloroform was added thereto and mixed well, the resultant cells were maintained at room temperature for 5 minutes and then centrifuged at 12,000×g and 4° C. for 15 minutes, the obtained supernatant was mixed with 500 μl of isopropanol and then put on ice for 10 minutes, the resulting supernatant was centrifuged at 12,000×g and 4° C. for 15 minutes to remove a supernatant, and then pellets were dissolved with tertiary distilled water treated with diethyl pyrocarbonate (DEPC). 2 μg of mRNA was synthesized into cDNA using a Superscript First Strand cDNA Synthesis Kit (Bioneer, Daejeon, South Korea) and the synthesized cDNA as a template was amplified through polymerase chain reaction (PCR) using primers specific to PPARγ2, 14-3-3β, 14-3-3γ, SREBP-1c, SCD-1, ACC, FABP, FAT/CD36, and β-actin of humans, and was amplified through real-time PCR using primers specific to PPARγ2, 14-3-3β, 14-3-3γ, SREBP-1c, FAT/CD36, and GAPDH of mice. β-actin and GAPDH were used as controls to see whether mRNAs of the respective cells were compared in the same amount.
HepG2 cells were seeded in a 6-well plate at a density of 4×10^5 cells per each well, and then transfected with GFP-14-3-3β DNA (4 μg) or GFP-14-3-3γ DNA (4 μg) using an E-fection plus reagent (Lugen). A ratio of DNA to the E-fection plus reagent was 1:2, and this method was performed according to a manufacturer's manual. After transfection, […], and for mRNA extraction, the corresponding cells were lysed with 1 ml/well of TRIzol (Invitrogen), 200 μl of chloroform was added thereto and mixed well, the resultant cells were maintained at room temperature for 5 minutes and then centrifuged at 12,000×g and 4° C. for 15 minutes, the obtained supernatant was mixed with 500 μl of isopropanol and then put on ice for 10 minutes, and the resulting supernatant was centrifuged at 12,000×g and 4° C. for 15 minutes to remove a supernatant, and then pellets were dissolved with tertiary distilled water treated with diethyl pyrocarbonate (DEPC). 2 μg of mRNA was synthesized into cDNA using a Superscript First Strand cDNA Synthesis Kit (Bioneer, Daejeon, South Korea) and the synthesized cDNA as a template was amplified through polymerase chain reaction (PCR) using primers specific to PPARγ2 (SEQ ID NOS: 1 and 2), 14-3-3β (SEQ ID NOS: 3 and 4), 14-3-3γ (SEQ ID NOS: 5 and 6), SREBP-1c, FAT/CD36, and β-actin of humans, and was amplified through real-time PCR using primers specific to SREBP-1c, FAT/CD36, and GAPDH of mice. β-actin and GAPDH were used as controls to see whether mRNAs of the respective cells were compared in the same amount.

[2] = system: primary mouse hepatocytes; assay: Triglyceride colorimetric assay in primary mouse hepatocytes; type: cell-based; conditions: FIG. 10A
Procedure: HepG2 cells and primary mouse hepatocytes were separately seeded in a 6-well plate at a density of 4×10^5 cells per each well, and then transfected with GFP-14-3-3β DNA (1 μg) or GFP-14-3-3γ DNA (1 μg) and si-14-3-3β (10 μM, Santa Cruz) or si-14-3-3γ (10 μM, Santa Cruz) using an E-fection plus reagent (Lugen). A ratio of DNA to the E-fection plus reagent was 1:2, and this method was performed according to a manufacturer's manual. After transfection, the cells were treated with 200 μM of oleic acid (OA) for 72 hours, and the amount of triglycerides was measured using a triglyceride colorimetric assay kit (Cayman Chemical). The corresponding cells were washed with ice-cold PBS and then scraped using a standard diluent assay reagent, the scrapping process was repeated using a sonicator 20 times to lyse the cells, and the lysed cells were reacted with an enzyme buffer solution for 15 minutes, followed by measurement using an ELISA reader (Bio-Rad Laboratories, Inc) at a wavelength of 550 nm.

[3] = system: HepG2 cells; assay: Oil Red-O lipid accumulation in HepG2 cells; type: cell-based, human; conditions: for lipid accumulation by oleic acid: HepG2, overexpression, 200 μM oleic acid 72 hours, FIG. 9B
Procedure: (§1) HepG2 cells and primary mouse hepatocytes were separately seeded in a 6-well plate at a density of 4×10^5 cells per each well, and then transfected with GFP-14-3-3β DNA (1 μg) or GFP-14-3-3γ DNA (1 μg) and si-14-3-3β (10 μM, Santa Cruz) or si-14-3-3γ (10 μM, Santa Cruz) using an E-fection plus reagent (Lugen). A ratio of DNA to the E-fection plus reagent was 1:2, and this method was performed according to a manufacturer's manual. […] The stained cells were bleached with 1 ml of isopropanol and analyzed at a wavelength of 550 nm using a DU530 spectrophotometer (Beckman Instruments, Palo Alto, Calif.).

[4] = system: primary mouse hepatocytes; assay: Oil Red-O lipid accumulation in primary mouse hepatocytes; type: cell-based; conditions: for lipid accumulation by oleic acid: overexpression, 200 μM oleic acid 72 hours, FIG. 9B
Procedure: as §1

[5] = primary mouse hepatocytes, overexpression, 200 μM oleic acid 72 hours

Row | Compound | mRNA expression of SREBP-1c and FAT/CD36 [1] | triglyceride accumulation [2, 5] | lipid accumulation by oleic acid [3] | lipid accumulation by oleic acid [4] | mRNA expression of PPARγ2 ([1]; HepG2, oleic acid concentration-dependent, FIG. 6A) | mRNA expression of lipid metabolism-associated genes (PPARγ2 target genes) ([1]; HepG2, oleic acid concentration-dependent, FIG. 6C) | mRNA expression amounts of 14-3-3β and 14-3-3γ ([1]; HepG2, oleic acid treatment, FIG. 6A) | triglyceride accumulation ([2]; primary mouse hepatocytes treated with oleic acid) | lipid accumulation ([3]; HepG2, concentration-dependent treatment of oleic acid, FIG. 9A) | lipid accumulation ([4]; concentration-dependent treatment of oleic acid, FIG. 9A)
1 | 14-3-3β: 14-3-3 isoform protein overexpressed by DNA transfection; increases the transcriptional activity of PPARγ2 by binding to PPARγ2 | further increased | further increased | increased | increased |  |  |  |  |  | 
2 | 14-3-3γ: 14-3-3 isoform protein overexpressed by DNA transfection; decreases the transcriptional activity of PPARγ2; proposed active ingredient | reduced | reduced | reduced | reduced |  |  |  |  |  | 
3 | CCCCCCCC/C=C\CCCCCCCC(=O)O [oleic acid] |  |  |  |  | increased | increased | no changes | increased | increased | increased
